Test results reported in patent US20210323913A1, “SIGMA RECEPTOR BINDERS” (BOARD OF REGENTS, THE UNIVERSITY OF TEXAS SYSTEM, priority 2016, published 2021).
Read-outs that look alike come from different tables or passages of the source.

What was measured:
[1] = biological target: D3 (Homo sapiens, UniProt P35462); assay: Radioligand competition binding, D3; details: Table 5; Cheng-Prusoff from best fit IC50; one value marked (AVE)
[2] = biological target: H1 (Homo sapiens, UniProt P35367); assay: Radioligand competition binding, H1; details: Table 5; Cheng-Prusoff from best fit IC50
[3] = biological target: PBR (UniProt P16257); assay: Radioligand competition binding, PBR; details: Table 5; Cheng-Prusoff from best fit IC50; one value marked (AVE)
[4] = biological target: Alpha2C (Homo sapiens, UniProt P18825); assay: Radioligand competition binding, Alpha2C; details: Table 5; Cheng-Prusoff from best fit IC50
[5] = biological target: sigma 2 receptor (Homo sapiens, UniProt Q5BJF2); assay: Sigma 2 receptor radioligand competition binding; details: for Ki ratio Sig1R/Sig2R: Table 1, ratio of Sig1R Ki to Sig2R Ki
[6] = biological target: D1 (Homo sapiens, UniProt P21728); assay: Radioligand competition binding, D1; details: Table 5; Cheng-Prusoff from best fit IC50; some values marked (AVE)
[7] = biological target: KOR (Homo sapiens, UniProt P41145); assay: Radioligand competition binding, KOR; details: Table 5; Cheng-Prusoff from best fit IC50; some values marked (AVE)
[8] = biological target: 5-HT2B (Homo sapiens, UniProt P41595); assay: Radioligand competition binding, 5-HT2B; details: Table 5; Cheng-Prusoff from best fit IC50
[9] = biological target: 5-HT7 (Homo sapiens, UniProt P34969); assay: Radioligand competition binding, 5-HT7; details: Table 5; Cheng-Prusoff from best fit IC50
[10] = biological target: T1, Alpha2A (Homo sapiens, UniProt P08913); assay: Radioligand competition binding, Alpha2A; details: Table 5; Cheng-Prusoff from best fit IC50
T1 sequence (P08913 1-465): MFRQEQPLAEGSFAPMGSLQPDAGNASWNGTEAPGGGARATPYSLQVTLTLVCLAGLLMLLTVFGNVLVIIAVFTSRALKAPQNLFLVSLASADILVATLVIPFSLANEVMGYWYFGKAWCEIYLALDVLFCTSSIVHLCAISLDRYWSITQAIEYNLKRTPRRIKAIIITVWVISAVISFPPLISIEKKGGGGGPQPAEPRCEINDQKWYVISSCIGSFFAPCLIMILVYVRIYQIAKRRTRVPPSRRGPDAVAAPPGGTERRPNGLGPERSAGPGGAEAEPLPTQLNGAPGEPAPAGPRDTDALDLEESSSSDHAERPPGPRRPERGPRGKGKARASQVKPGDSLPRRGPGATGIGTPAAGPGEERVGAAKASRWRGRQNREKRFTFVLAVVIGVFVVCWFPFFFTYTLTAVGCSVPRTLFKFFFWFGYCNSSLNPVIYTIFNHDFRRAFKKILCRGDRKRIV

[11] = biological target: 5-HT6 (Homo sapiens, UniProt P50406); assay: Radioligand competition binding, 5-HT6; details: Table 5; Cheng-Prusoff from best fit IC50
[12] = biological target: H2 (Homo sapiens, UniProt P25021); assay: Radioligand competition binding, H2; details: Table 5; Cheng-Prusoff from best fit IC50
[13] = biological target: T2, 5-HT2C (Homo sapiens, UniProt P28335); assay: Radioligand competition binding, 5-HT2C; details: Table 5; Cheng-Prusoff from best fit IC50
T2 sequence (P28335 33-458): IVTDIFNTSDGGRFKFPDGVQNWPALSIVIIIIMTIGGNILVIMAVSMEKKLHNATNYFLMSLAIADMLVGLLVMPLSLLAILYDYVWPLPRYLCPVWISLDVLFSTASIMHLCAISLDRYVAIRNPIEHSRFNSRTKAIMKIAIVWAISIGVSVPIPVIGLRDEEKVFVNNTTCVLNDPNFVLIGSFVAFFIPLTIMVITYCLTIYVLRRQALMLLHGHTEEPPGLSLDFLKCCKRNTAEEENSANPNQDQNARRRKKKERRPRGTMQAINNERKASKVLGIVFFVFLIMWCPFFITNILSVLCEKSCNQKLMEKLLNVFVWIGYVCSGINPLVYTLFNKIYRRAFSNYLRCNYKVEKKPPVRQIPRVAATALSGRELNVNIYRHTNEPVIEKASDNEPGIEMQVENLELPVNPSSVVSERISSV

[14] = biological target: M4 (Homo sapiens, UniProt P08173); assay: Radioligand competition binding, M4; details: Table 5; Cheng-Prusoff from best fit IC50; one value marked (AVE)
[15] = biological target: T3, 5-HT1A (Homo sapiens, UniProt P08908); assay: Radioligand competition binding, 5-HT1A; details: Table 5; Cheng-Prusoff from best fit IC50
T3 sequence (P08908 1-422): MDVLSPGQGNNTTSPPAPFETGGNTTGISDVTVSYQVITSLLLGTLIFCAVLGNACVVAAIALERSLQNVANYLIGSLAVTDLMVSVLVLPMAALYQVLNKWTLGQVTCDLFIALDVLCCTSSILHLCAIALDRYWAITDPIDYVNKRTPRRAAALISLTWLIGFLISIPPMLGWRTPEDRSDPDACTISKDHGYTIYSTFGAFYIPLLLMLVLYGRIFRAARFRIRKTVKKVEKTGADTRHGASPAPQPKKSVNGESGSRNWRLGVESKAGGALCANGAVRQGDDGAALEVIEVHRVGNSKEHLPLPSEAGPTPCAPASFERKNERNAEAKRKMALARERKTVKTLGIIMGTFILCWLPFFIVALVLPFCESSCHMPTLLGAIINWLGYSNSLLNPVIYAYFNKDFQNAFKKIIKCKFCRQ

[16] = biological target: sigma 1 receptor (Homo sapiens, UniProt Q99720); assay: Sigma 1 receptor radioligand competition binding
[17] = biological target: 5-HT1D (Homo sapiens, UniProt P28221); assay: Radioligand competition binding, 5-HT1D; details: Table 5; Cheng-Prusoff from best fit IC50
[18] = biological target: 5-HT2A (Homo sapiens, UniProt P28223); assay: Radioligand competition binding, 5-HT2A; details: Table 5; Cheng-Prusoff from best fit IC50
[19] = biological target: M5 (Homo sapiens, UniProt P08912); assay: Radioligand competition binding, M5; details: Table 5; Cheng-Prusoff from best fit IC50
[20] = biological target: Alpha1D (Homo sapiens, UniProt P25100); assay: Radioligand competition binding, Alpha1D; details: Table 5; Cheng-Prusoff from best fit IC50
[21] = biological target: D5 (Homo sapiens, UniProt P21918); assay: Radioligand competition binding, D5; details: Table 5; Cheng-Prusoff from best fit IC50
[22] = biological target: 5-ht5a (Homo sapiens, UniProt P47898); assay: Radioligand competition binding, 5-ht5a; details: Table 5; Cheng-Prusoff from best fit IC50
[23] = biological target: H3 (Homo sapiens, UniProt Q9Y5N1); assay: Radioligand competition binding, H3; details: Table 5; Cheng-Prusoff from best fit IC50
[24] = biological target: MOR (Homo sapiens, UniProt P35372); assay: Radioligand competition binding, MOR; details: Table 5; Cheng-Prusoff from best fit IC50
[25] = biological target: Alpha2B (Homo sapiens, UniProt P18089); assay: Radioligand competition binding, Alpha2B; details: Table 5; Cheng-Prusoff from best fit IC50
[26] = biological target: T4, D4 (Homo sapiens, UniProt P21917); assay: Radioligand competition binding, D4; details: Table 5; Cheng-Prusoff from best fit IC50
T4 sequence (P21917 1-419): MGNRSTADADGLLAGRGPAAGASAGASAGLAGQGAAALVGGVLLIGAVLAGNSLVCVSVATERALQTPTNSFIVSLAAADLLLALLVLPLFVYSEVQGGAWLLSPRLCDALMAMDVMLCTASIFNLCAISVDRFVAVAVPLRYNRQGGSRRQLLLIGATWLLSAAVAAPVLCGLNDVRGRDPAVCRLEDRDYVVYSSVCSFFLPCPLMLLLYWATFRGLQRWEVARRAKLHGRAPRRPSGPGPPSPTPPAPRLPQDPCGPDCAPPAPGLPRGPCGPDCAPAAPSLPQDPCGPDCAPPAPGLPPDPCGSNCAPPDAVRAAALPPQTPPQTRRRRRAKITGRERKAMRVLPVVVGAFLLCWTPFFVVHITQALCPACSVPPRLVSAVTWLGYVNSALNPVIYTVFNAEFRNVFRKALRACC

[27] = biological target: Beta3 (Homo sapiens, UniProt P13945); assay: Radioligand competition binding, Beta3; details: Table 5; Cheng-Prusoff from best fit IC50
[28] = biological target: 5-HT1B (Homo sapiens, UniProt P28222); assay: Radioligand competition binding, 5-HT1B; details: Table 5; Cheng-Prusoff from best fit IC50
[29] = biological target: DAT (Homo sapiens, UniProt Q01959); assay: Radioligand competition binding, DAT; details: Table 5; Cheng-Prusoff from best fit IC50
[30] = biological target: D2 (Homo sapiens, UniProt P14416); assay: Radioligand competition binding, D2; details: Table 5; Cheng-Prusoff from best fit IC50
[31] = biological target: Alpha1A (Homo sapiens, UniProt P35348); assay: Radioligand competition binding, Alpha1A; details: Table 5; Cheng-Prusoff from best fit IC50
[32] = biological target: H4 (Homo sapiens, UniProt Q9H3N8); assay: Radioligand competition binding, H4; details: Table 5; Cheng-Prusoff from best fit IC50; value marked (AVE)
[33] = Table 5, Cheng-Prusoff from best fit IC50, read-out: Ki Sigma 2
[34] = Table 1, 7-piperazinyl-tetrahydronaphthalene analogs, read-out: Ki (nM) Sig1R
[35] = Table 1, 7-piperazinyl-tetrahydronaphthalene analogs, read-out: Ki (nM) Sig2R

SMILES	Ki [1]	Ki [2]	Ki [3]	Ki [5, 33]	Ki [6]	Ki [7]	Ki [8]	Ki [9]	Ki [11]	Ki [12]	Ki [15]	Ki [16, 34]	Ki [17]	Ki [18]	Ki [5, 35]	Ki ratio Sig1R/Sig2R [5]	Ki [21]	Ki [22]	Ki [26]	Ki [28]	further results
CN(Cc1cc(Cl)cc(Cl)c1)C1CCCc2ccc(N3CCOCC3)cc21 (stereo not drawn) [MDW-1-131, N-(3,5-dichlorobenzyl)-N-methyl-7-morpholino-1,2,3,4-tetrahydronaphthalen-1-amine]	3390 nM	182 nM	902 nM	522 nM																	Ki [4]: 2540 nM
CN(C(=O)OCc1ccccc1)C1CCCc2ccc(N3CCN(C4CCCC4)CC3)cc21 (stereo not drawn) [MDW-1-140, Benzyl (7-(4-cyclopentylpiperazin-1-yl)-1,2,3,4-tetrahydronaphthalen-1-yl)(methyl)carbamate]	462 nM	28 nM	4060 nM	2.1 nM	457 nM	≥ 10000 nM	263 nM	1480 nM	1020 nM	211 nM	367 nM	86 nM	509 nM	547 nM	2 nM	41	2.6 µM	2500 nM			Ki [10]: 1110 nM; Ki [13]: 1460 nM; Ki [14]: 2980 nM; Ki [19]: 3.69 µM; Ki [20]: 1810 nM; Ki [23]: 965 nM
CN(CCCO)C1CCCc2ccc(-c3ccc(C(F)(F)F)cc3)cc21 (stereo not drawn) [MDW-1-144, 3-(Methyl(7-(4-(trifluoromethyl)phenyl)-1,2,3,4-tetrahydronaphthalen-1-yl)amino)propan-1-ol]				50 nM		154 nM	3590 nM	2400 nM		327 nM							> 10 µM	> 10000 nM			Ki [24]: 307 nM; Ki ([16]; Table 5, Cheng-Prusoff from best fit IC50, read-out: Ki Sigma 1): 1270 nM; Ki [25]: 524 nM
CN(C(=O)OCc1ccccc1)C1CCCc2ccc(N3CCN(CCCO)CC3)cc21 (stereo not drawn) [MDW-1-177, Benzyl (7-(4-(3-hydroxypropyl)piperazin-1-yl)-1,2,3,4-tetrahydronaphthalen-1-yl)(methyl)carbamate]	597 nM			21 nM	1350 nM		99 nM	585 nM	1230 nM	291 nM	528 nM	474 nM	136 nM	632 nM	21 nM	23			> 10 µM	261 nM	Ki [27]: 8.04 µM
CCCN(C(=O)OCc1ccccc1)C1CCCc2ccc(N3CCN(CCC(=O)OCC)CC3)cc21 (stereo not drawn) [MDW-1-191, Ethyl 3-(4-(8-(((benzyloxy)carbonyl)(propyl)amino)-5,6,7,8-tetrahydronaphthalen-2-yl)piperazin-1-yl)propanoate]	315 nM		1670 nM				771 nM	891 nM	1560 nM	1290 nM	569 nM	2360 nM	1140 nM	1730 nM	19 nM	124		1530 nM	1.72 µM	441 nM	Ki [29]: > 10 µM; Ki [30]: 2410 nM; Ki [31]: 1410 nM
CCCN1CCN(c2ccc3c(c2)C(N(C)C(=O)OCc2ccccc2)CCC3)CC1 (stereo not drawn) [MDW-2-76, Benzyl methyl(7-(4-propylpiperazin-1-yl)-1,2,3,4-tetrahydronaphthalen-1-yl)carbamate]	438 nM	20 nM	8330 nM	5.5 nM	690 nM		100 nM	459 nM	778 nM	302 nM	156 nM	200 nM	135 nM	315 nM	6 nM	36	3.96 µM		6.66 µM	362 nM	Ki [10]: 1030 nM; Ki [32]: 5.88 µM; Ki [13]: 762 nM; Ki [19]: 6.62 µM; Ki [20]: 2600 nM; Ki [25]: 3330 nM; Ki [31]: 2360 nM; Ki [23]: 1350 nM
